Experiment [1] can be described thus: In vivo inhibition of LRRK2 in Han-Wistar rat assessed as reduction in Ser935 phosphorylation in brain at 100 mg/kg, po by Western blot analysis. More on the design: scale not given: the % may be the effect or the level left. The format is functional. For orientation: A western blot detects proteins with antibodies after separation by electrophoresis.
The target in experiment [2] is Ephrin type-A receptor 1 (Homo sapiens) (UniProt P21709). As to the kind of experiment: Inhibition of wild-type human partial length EPHA1 (V588 to I913 residues) expressed in bacterial expression system assessed as residual activity at 1 uM by Kinomescan method relative to control.
Experiment [3] addresses Lymphokine-activated killer T-cell-originated protein kinase (Homo sapiens) (UniProt Q96KB5). In words: Inhibition of PBK (unknown origin) assessed as residual activity at 1 uM by Kinomescan method relative to control.

Chain of Ephrin type-A receptor 1 (Homo sapiens) (P21709 whole entry, the tested form may be a part): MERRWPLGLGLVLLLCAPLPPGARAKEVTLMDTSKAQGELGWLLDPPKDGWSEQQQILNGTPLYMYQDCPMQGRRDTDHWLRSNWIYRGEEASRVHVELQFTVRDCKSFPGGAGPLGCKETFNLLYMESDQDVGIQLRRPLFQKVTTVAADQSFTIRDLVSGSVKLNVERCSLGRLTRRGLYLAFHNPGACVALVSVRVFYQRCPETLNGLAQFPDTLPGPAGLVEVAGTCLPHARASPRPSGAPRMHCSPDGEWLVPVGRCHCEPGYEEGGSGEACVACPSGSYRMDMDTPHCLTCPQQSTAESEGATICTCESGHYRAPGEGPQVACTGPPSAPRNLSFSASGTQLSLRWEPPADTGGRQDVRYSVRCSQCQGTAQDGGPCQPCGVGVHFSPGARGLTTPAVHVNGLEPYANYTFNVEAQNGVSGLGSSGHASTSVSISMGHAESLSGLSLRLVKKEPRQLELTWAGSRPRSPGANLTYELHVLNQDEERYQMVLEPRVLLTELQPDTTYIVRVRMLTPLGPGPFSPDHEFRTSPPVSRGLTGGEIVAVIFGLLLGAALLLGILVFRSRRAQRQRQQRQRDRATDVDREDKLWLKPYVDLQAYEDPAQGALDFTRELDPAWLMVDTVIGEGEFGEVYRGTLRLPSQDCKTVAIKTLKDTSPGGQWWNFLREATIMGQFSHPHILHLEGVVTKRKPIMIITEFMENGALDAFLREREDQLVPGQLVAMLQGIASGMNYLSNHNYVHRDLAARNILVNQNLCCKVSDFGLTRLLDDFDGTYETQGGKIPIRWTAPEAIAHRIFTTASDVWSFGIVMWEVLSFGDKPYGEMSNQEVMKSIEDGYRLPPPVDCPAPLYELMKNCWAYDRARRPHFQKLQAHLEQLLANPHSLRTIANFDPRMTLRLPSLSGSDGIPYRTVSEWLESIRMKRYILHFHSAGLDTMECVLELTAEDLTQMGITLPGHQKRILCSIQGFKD
Chain of Lymphokine-activated killer T-cell-originated protein kinase (Homo sapiens) (Q96KB5 whole entry): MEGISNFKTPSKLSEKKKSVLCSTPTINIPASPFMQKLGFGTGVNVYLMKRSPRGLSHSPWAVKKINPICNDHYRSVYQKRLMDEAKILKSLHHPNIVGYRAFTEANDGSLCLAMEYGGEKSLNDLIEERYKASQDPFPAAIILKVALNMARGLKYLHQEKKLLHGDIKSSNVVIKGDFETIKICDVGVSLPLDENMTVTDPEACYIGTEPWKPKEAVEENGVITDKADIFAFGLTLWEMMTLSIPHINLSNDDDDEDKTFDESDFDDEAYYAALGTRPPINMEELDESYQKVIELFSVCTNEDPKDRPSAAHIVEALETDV

With `CCOc1nc(Nc2ccc(C(=O)N3CCOCC3)cc2OC)nc2[nH]ccc12`, the results for the Activity in experiment [1], in experiment [2] and in experiment [3] were 75%, 95.5% and 101%, respectively.
